Measured values published in ChEMBL document CHEMBL4325866, “Discovery of a subnanomolar and selective spirocyclic agonist of the glucocorticoid receptor” (Eur J Med Chem, 2019).

Legend:
Glucocorticoid receptor = biological target: T1, Glucocorticoid receptor (Homo sapiens, UniProt P04150); assay: Displacement of [3H]dexamethasone from GR in human IM9 cells after 6 hrs by scintillation counting method; type: cell-based
T1 sequence (P04150 whole entry): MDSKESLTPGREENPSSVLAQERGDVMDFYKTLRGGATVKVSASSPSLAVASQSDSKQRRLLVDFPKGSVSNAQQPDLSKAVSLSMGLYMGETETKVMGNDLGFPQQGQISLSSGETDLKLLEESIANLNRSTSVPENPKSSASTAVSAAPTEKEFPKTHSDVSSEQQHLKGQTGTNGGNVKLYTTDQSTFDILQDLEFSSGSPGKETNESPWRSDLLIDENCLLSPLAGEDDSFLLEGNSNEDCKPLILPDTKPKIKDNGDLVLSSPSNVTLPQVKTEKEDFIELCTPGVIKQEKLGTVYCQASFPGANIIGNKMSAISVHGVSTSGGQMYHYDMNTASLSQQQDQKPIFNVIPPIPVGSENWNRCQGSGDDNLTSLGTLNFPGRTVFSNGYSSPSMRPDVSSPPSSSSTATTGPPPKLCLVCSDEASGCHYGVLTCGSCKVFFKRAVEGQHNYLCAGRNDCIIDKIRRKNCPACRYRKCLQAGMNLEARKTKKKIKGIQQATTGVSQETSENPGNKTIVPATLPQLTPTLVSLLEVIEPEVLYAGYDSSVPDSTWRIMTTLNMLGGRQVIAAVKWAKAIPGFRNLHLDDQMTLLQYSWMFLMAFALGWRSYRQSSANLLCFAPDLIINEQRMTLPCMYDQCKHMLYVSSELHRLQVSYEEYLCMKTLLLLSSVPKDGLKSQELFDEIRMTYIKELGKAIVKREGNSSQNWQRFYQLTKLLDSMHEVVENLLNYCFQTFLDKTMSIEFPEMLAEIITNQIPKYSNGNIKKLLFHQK

Progesterone receptor = biological target: T2, Progesterone receptor (Homo sapiens, UniProt P06401); assay: Displacement of [3H]progesterone from progesterone receptor in human T47D cells after 20 hrs by scintillation counting method; type: cell-based
T2 sequence (P06401 whole entry): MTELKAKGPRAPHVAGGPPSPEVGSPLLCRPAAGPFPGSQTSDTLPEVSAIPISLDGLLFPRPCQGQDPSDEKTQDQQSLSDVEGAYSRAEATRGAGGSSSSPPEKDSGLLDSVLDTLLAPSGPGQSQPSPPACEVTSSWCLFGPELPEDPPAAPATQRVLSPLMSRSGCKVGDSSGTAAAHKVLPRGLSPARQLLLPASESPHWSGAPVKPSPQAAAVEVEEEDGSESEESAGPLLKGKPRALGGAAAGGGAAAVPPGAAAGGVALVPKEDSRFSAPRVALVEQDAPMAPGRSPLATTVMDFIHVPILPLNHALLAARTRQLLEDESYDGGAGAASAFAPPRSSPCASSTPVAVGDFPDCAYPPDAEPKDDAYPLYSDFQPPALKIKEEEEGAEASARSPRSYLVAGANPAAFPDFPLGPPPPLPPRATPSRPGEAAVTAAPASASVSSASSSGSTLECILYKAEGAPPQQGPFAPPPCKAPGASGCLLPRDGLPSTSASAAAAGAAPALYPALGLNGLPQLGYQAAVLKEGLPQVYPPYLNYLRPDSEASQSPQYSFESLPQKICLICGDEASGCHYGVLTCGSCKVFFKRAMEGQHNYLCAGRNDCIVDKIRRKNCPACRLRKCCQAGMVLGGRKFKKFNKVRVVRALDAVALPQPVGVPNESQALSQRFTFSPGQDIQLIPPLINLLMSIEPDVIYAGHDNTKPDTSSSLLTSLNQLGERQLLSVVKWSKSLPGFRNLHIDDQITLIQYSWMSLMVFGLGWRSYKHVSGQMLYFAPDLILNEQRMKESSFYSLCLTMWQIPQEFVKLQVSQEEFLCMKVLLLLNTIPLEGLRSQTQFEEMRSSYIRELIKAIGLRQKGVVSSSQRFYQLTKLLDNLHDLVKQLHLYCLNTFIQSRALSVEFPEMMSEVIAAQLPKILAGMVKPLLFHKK

A549 [1] = assay: Antiinflammatory activity in human A549 cells assessed as inhibition of IL1beta-induced IL6 production preincubated for 30 mins followed by IL1beta-stimulation and measured after 20 hrs by AlphaLisa assay; type: functional, cell-based
Blood = assay: Antiinflammatory activity in Sprague-Dawley rat whole blood assessed as inhibition of LPS-induced TNFalpha production measured after 18 hrs by AlphaLisa assay; type: functional, tissue-based
[2] = biological target: T3, Glucocorticoid receptor (Homo sapiens) (UniProt P04150); assay: Potency index, ratio of prednisolone IC50 to test compound IC50 for displacement of [3H]dexamethasone from GR in human IM9 cells; type: cell-based
T3 sequence (whole entry): T1 sequence (P04150 whole entry)

A549 [3] = assay: Potency index, ratio of prednisolone IC50 to test compound IC50 for inhibition of IL1beta-induced IL6 production in human A549 cells; type: functional

SMILES | IC50 (Glucocorticoid receptor) [nM] | also measured
O[C@@]1(Cc2ccccc2)CCCCC[C@@]12C=Cc1c(cnn1-c1ccc(F)cc1)C2 | 89 | –
O[C@H]1[C@@H](Cc2ccccc2)CCC[C@]12C=Cc1c(cnn1-c1ccc(F)cc1)C2 | > 1000 | –
O[C@@]1(c2ccccc2)CCCCC[C@@]12C=Cc1c(cnn1-c1ccc(F)cc1)C2 | 6 | IC50 (Progesterone receptor): > 1000 nM
O[C@H]1C(Cc2ccccc2)(Cc2ccccc2)CCC[C@]12C=Cc1c(cnn1-c1ccc(F)cc1)C2 | > 1000 | –
C[C@]12C=CC(=O)C=C1CC[C@@H]1[C@@H]2[C@@H](O)C[C@@]2(C)[C@H]1CC[C@]2(O)C(=O)CO [PREDNISOLONE] | – | IC50 (A549 [1]): 5.8 nM; IC50 (Blood): 4.6 nM
C#CC[C@H]1CCC[C@]2(C=Cc3c(cnn3-c3ccc(F)cc3)C2)[C@H]1O | > 1000 | –
O[C@]1(Cc2ccccc2)CCCCC[C@@]12C=Cc1c(cnn1-c1ccc(F)cc1)C2 | 130 | –
O[C@]1(c2ccccc2)CCCCC[C@@]12C=Cc1c(cnn1-c1ccc(F)cc1)C2 | 9.5 | –

The next lines start with results.

IC50 (Glucocorticoid receptor) [nM] | SMILES | also measured
10 | Oc1ccc(C2=CCCC[C@]23C=Cc2c(cnn2-c2ccc(F)cc2)C3)cc1 | –
1010 | O[C@]1(c2ccccc2)CCCC[C@@]12C=Cc1c(cnn1-c1ccc(F)cc1)C2 | –
135 | COc1ccc(C2=CCCC[C@]23C=Cc2c(cnn2-c2ccc(F)cc2)C3)cc1 | –
> 1000 | O[C@@]1(c2ccccc2)CCC[C@]12C=Cc1c(cnn1-c1ccc(F)cc1)C2 | –
20 | Fc1ccc(-n2ncc3c2C=C[C@]2(CCCC=C2c2ccccc2)C3)cc1 | IC50 (Progesterone receptor): > 1000 nM
0.41 | O[C@@]1(c2ccccc2)CCCC[C@@]12C=Cc1c(cnn1-c1ccc(F)cc1)C2 | IC50 (Progesterone receptor): 780 nM; Ratio IC50 [2]: 30; Ratio IC50 (A549 [3]): 10; IC50 (A549 [1]): 0.5 nM; IC50 (Blood): 4 nM
